Holding throughout (test): relative viability (nuclei count vs DMSO), 5 days (fraction); higher = more cells survive
Compound in assay [1]: CC(O)(CS(=O)(=O)c1ccc(F)cc1)C(=O)Nc1ccc(C#N)c(C(F)(F)F)c1 [Bicalutamide] + Cc1cc(Nc2cc(N3CCN(C)CC3)nc(Sc3ccc(NC(=O)C4CC4)cc3)n2)n[nH]1 [Tozasertib] (partner 0.1 µM)
An outline of the steps:
(§1)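 Values are medians from duplicate plates. Each reflects relative viability, defined as the nuclei count of treated wells over that of vehicle wells. Lung cancer cell lines in 1536-well plates were pin-tool dosed one day after seeding with one drug alone or with a fixed anchor-drug dose plus five library-drug doses (not always all listed) in √10 steps, then fixed, stained and imaged at 4× after 5 days.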

Compound in assay [2]: C(C(=O)C(=O)O)Br [Bromopyruvate] + CC1(C)CCC(c2ccc(Cl)cc2)=C(CN2CCN(c3ccc(C(=O)NS(=O)(=O)c4ccc(N[C@H](CCN5CCOCC5)CSc5ccccc5)c(S(=O)(=O)C(F)(F)F)c4)cc3)CC2)C1 [Navitoclax] (partner 0.5 µM)
An outline of the steps:
as §1

Compound in assay [3]: CC(O)(CS(=O)(=O)c1ccc(F)cc1)C(=O)Nc1ccc(C#N)c(C(F)(F)F)c1 [Bicalutamide] + C[C@]1(O)C[C@@H](c2nc(-c3ccc4ccc(-c5ccccc5)nc4c3)c3c(N)nccn32)C1 [Linsitinib] (partner 1 µM)
An outline of the steps:
as §1

Compound in the assay “Bromopyruvate + OSI-027”: C(C(=O)C(=O)O)Br [Bromopyruvate] + COc1cccc2cc(-c3nc([C@H]4CC[C@H](C(=O)O)CC4)n4ncnc(N)c34)[nH]c12 [OSI-027] (partner 0.5 µM)
An outline of the steps: as §1

As to UMC-11, the relative viability came to 0.193 in assay [1] (first compound 0.08 µM); 0.184 in assay [1] (first compound 0.253 µM); 0.191 in assay [1] (first compound 0.8 µM); 0.191 in assay [1] (first compound 2.53 µM); 0.289 in assay [2] (first compound 1 µM); 0.291 in assay [2] (first compound 3.162 µM). Besides, the relative viability was 0.304 in assay [2] (first compound 10 µM); 0.297 in assay [2] (first compound 31.62 µM); 0.288 in assay [2] (first compound 100 µM); 1.1 in assay [3] (first compound 0.08 µM); 0.662 in assay [3] (first compound 0.253 µM); 1.08 in assay [3] (first compound 0.8 µM). Further, the relative viability in assay [3] (first compound 2.53 µM) came out at 0.955; in the assay with Bromopyruvate + OSI-027 (first compound 1 µM), 0.518; with Bromopyruvate + OSI-027 (first compound 3.162 µM) it was 0.452; with Bromopyruvate + OSI-027 (first compound 10 µM) it was 0.491; with Bromopyruvate + OSI-027 (first compound 31.62 µM), 0.533; in the assay with Bromopyruvate + OSI-027 (first compound 100 µM), 0.501.

These data come from the supplement of paper PMC10307832.
